Reference: patent EP0371438B1, “3,5-Di-tertiary-butyl-4-hydroxyphenyl-1,3,4-thiadiazoles, and oxadiazoles and 3,5-di-tertiary-butyl-4-hydroxiphenyl- 1,2,4-thiadiazoles, -oxadiazoles as antiinflammatory agents” (WARNER-LAMBERT COMPANY, priority 1988, dated 1990)

Key:
[1] = molecular target: T1, 5-lipoxygenase (Rattus norvegicus, UniProt P12527); assay: ARBL whole cell 5-lipoxygenase assay (LTB4 formation, RIA); assay type: cell-based; conditions: IC50 for LTB4 inhibition; RBL-1 cells, calcium ionophore A23187
T1 construct: host or cells: RBL-1 (rat basophilic leukemia)
T1 sequence (P12527 1-673): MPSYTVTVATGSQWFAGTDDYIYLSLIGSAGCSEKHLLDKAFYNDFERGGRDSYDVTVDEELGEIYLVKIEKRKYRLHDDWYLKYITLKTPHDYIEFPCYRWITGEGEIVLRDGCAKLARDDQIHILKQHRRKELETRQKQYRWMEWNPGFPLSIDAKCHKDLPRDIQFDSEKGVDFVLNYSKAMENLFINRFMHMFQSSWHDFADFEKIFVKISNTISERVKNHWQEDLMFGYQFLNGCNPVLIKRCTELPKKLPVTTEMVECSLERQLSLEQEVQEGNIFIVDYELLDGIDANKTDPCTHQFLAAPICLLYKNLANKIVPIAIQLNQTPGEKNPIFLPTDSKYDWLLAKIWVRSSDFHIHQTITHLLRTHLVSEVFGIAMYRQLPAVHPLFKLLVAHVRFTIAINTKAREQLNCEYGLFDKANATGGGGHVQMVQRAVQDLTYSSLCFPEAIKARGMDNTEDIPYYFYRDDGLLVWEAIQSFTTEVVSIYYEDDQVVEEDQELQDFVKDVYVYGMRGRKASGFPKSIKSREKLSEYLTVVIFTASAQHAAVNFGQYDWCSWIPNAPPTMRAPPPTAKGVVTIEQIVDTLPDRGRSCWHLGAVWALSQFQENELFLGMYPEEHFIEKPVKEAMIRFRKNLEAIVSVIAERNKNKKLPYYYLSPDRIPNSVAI
Method: (§1) ARBL/ARBC Whole Cell 5-Lipoxygenase and Cyclooxygenase Assays
(§2) The rat basophilic leukemia cell line (RBL-1) was obtained from the American Type Culture Collection (Rockville, MD).
(§3) Radioimmunoassay (RIA) kits of LTB₄ and [drawing 16] were obtained from Amersham (Arlington Heights, IL) and Seragen (Boston, MA), respectively.
(§4) RBL-1 cells are grown in suspension culture in Eagle's minimum essential medium supplemented with 12% fetal bovine serum at 37°C in an incubator supplied with air-5% carbon dioxide. Cells are harvested by centrifugation. They are washed with cold phosphate buffered saline pH 7.4 (PBS; NaCl, 7.1 g; Na₂HPO₄, 1.15 g; KH₂PO₄, 0.2 g; and KCl, 0.2 g/l). Cells are finally suspended in PBS containing 1.0 mM calcium at a density of 2x10⁶ cells/ml. Cells are incubated with and without test agent (in DMSO) (1% DMSO is without effect on arachidonic acid metabolism) for ten minutes at room temperature. Calcium ionophore A23187 (5 »M) is added and cells are incubated for seven minutes at 37°C. The reaction is stopped by chilling the tubes on ice for ten minutes. Cells are separated by centrifugation and the supernatant is stored at -20°. Aliquots (100 »l) are analyzed for LTB₄ and [drawing 17] using radioimmunoassay kits as provided by the supplier.
(§5) Table 1 contains biochemical data obtained from this whole cell assay as IC₅₀s which are calculated as the amount of test compound causing 50% inhibition of LTB₄ or [drawing 18] formation.

[2] = test system: cyclooxygenase; assay: ARBC whole cell cyclooxygenase assay (PGF2α formation, RIA); assay type: cell-based, rat; conditions: IC50 for PGF2α inhibition; RBL-1 cells, calcium ionophore A23187
Method: as §1, §2, §3, §4, §5

[3] = test system: Carrageenan-Induced Rat Foot Paw Edema; assay: Carrageenan-induced rat foot paw edema-2 (CFE-2) assay; assay type: in vivo; conditions: 5 h, PO, dosed one hour before carrageenan, edema measured five hours after, compound tested as its sodium salt, read-out: CFE-2 ID₄₀
Method: Carrageenan-Induced Rat Foot Paw Edema-2 (CFE-2) Assay: Protocol
Carrageenan solution (1% w/v) is prepared by dissolving 100 mg carrageenan (Marine Colloidal Div., Springfield, NJ) in 10 ml of sterile saline (0.9%) solution (Travenol). The solution is vortexed for 30 to 45 minutes. Animals are dosed with compound one hour before carrageenan challenge. Foot paw edema is induced by injecting 0.10 ml of the 1% carrageenan subcutaneously into the plantar portion of the right hind paw of each rat under light anesthesia. Initial foot paw volume is measured immediately following carrageenan challenge using mercury plethysmography (Buxco Electronics). Edema is measured five hours after carrageenan. The difference between the five-hour and the initial paw volume is expressed as delta edema. The delta edema for each test group of animals is used to calculate the percent inhibition of edema achieved by the compound at the test dose compared with the vehicle control group. The ID₄₀ (the dose at which swelling is inhibited by 40%) is calculated by probit analysis for the dose at which 40 percent inhibition occurs.

[4] = test system: Mycobacterium - Induced Rat Footpad Edema; assay: Mycobacterium-induced rat footpad edema assay (MFE); assay type: in vivo; conditions: PO, swelling 72 hours after injection, compound tested as its sodium salt, read-out: MFE ID₄₀
Method: Mycobacterium - Induced Rat Footpad Edema Assay (MFE): Protocol Mycobacterium butyricum (5 mg/ml) is suspended in paraffin oil by sonication for ten minutes in an ice bath. Footpad edema is induced on Day 0 by injecting 0.1 ml of the Mycobacterium mixture into the left hindpaw of lightly anesthetized rats. Swelling in the injected hindpaw is determined by mercury plethysmography 72 hours after injection. Groups of rats are treated with test compounds (suspended in 0.5% hydroxypropyl methylcellulose with 0.2% Tween-80) or vehicle one hour before Mycobacterium injection and on Days 1 and 2. Inhibition of swelling is determined by comparing the change in hindpaw volume in compound-and vehicle-treated rats. An ID₄₀ (the dose at which swelling is inhibited by 40%) is calculated by probit analysis.

[5] = test system: gastric ulcers; assay: Gastric ulcerogenicity (UD); assay type: in vivo, Male outbred Wistar rats; conditions: PO, dose which produces a 50% occurrence of ulcers in rats; result given @ 200; compound tested as its sodium salt
Method: Gastric Ulcerogenicity (UD): Protocol
Male outbred Wistar rats (100-250 gms) are fasted for 24 hours. After fasting, test compounds are administered orally (in 2 ml/kg of 0.5% hydroxypropyl methylcellulose) and the rats are denied access to food and water for six more hours. The rats are then sacrificed with CO₂ so that the stomachs can be removed, opened along the greater curvature, and evaluated for the presence of gastric ulcers. Results are expressed as the percent of rats with gastric ulcers at a given dose or as the UD₅₀ (the dose which causes ulcers in 50% of the rats).

SMILES | IC50 [1] | IC50 [2] | ED40 [3] | ED40 [4] | UD₅₀ [5]
CC(C)(C)c1cc(-c2n[nH]c(=O)[nH]2)cc(C(C)(C)C)c1O [Example 15, 5-[3,5-Bis(1,1-dimethylethyl)-4-hydroxyphenyl]-2,4-dihydro-3H-1,2,4-triazol-3-one] | 4.5 µM | 5.5 µM |  |  | 
CC(C)(C)c1cc(-c2nnc(N)s2)cc(C(C)(C)C)c1O [Example 10, 4-(5-Amino-1,3,4-thiadiazol-2-yl)-2,6-bis(1,1-dimethylethyl)phenol] | 1.4 µM | 0.13 µM |  |  | 
CC(C)(C)c1cc(-c2n[nH]c(=S)o2)cc(C(C)(C)C)c1O [Example 8, 5-[3,5-Bis(1,1-dimethylethyl)-4-hydroxyphenyl]-1,3,4-oxadiazole-2(3H)-thione] | 10 µM | 8 µM |  |  | 
CC(C)(C)c1cc(-c2nnc(S)s2)cc(C(C)(C)C)c1O [Example 4, 5-[3,5-Bis(1,1-dimethylethyl)-4-hydroxyphenyl]-1,3,4-thiadiazole-2(3H)-thione] | 5.7 µM | 0.86 µM | 1.9 mg/kg | 3.2 mg/kg | N @ 200 (N is 0% of rats having ulcers at 200 mg.)
CC(C)(C)c1cc(-c2n[nH]c(=O)o2)cc(C(C)(C)C)c1O [Example 7, 5-[3,5-Bis(1,1-dimethylethyl)-4-hydroxyphenyl]-1,3,4-oxadiazol-2(3H)-one] | 1.4 µM | 2.5 µM |  |  | 
